The structures appear in SMILES notation.

Data set [1] is described as follows: Radiochemical purity and stability of 68GaPSMA-R2 by HPLC. The data set is classed as physicochemical. Conditions: for stability to the radiolytic degradation / radiochemical purity: up to 4 hours; for stability to the radiolytic degradation: without gentisic acid; for radiochemical purity: without the gentisic acid. The protocol:
Radiochemical purity and identification of ^68GaPSMA-R2 by HPLC
Chromatographic conditions
The molecule was labelled with ^68Ga using E&Z generator with an activity in the range of […]. The labelling was performed at 95° C. for 7 minutes with Gallium buffer (pH 3.2-3.8). Experiments were performed by testing different amount of gentisic acid as radiolytic scavenger and peptide amounts (15 μg and 30 μg). In all tests 20 mg of mannitol were added as cake forming.

For data set [2], the system named is tumor models. The conditions noted are these: current specific activity.
The conditions of data set [3]: cited from earlier work.

Turning to `O=C([O-])CN1CCN(CC(=O)[O-])CCN(CC(=O)NCCCCCC(=O)N(CCCC[C@H](NC(=O)N[C@@H](CCC(=O)O)C(=O)O)C(=O)O)Cc2ccc(Br)cc2)CCN(CC(=O)[O-])CC1.[68Ga+3]` [68GaPSMA-R2], in data set [1], the “stability to the radiolytic degradation” value is reported as “good stability to the radiolytic degradation” and the radiochemical purity result is reported as “higher than 92%”. For the same molecule, in data set [1] (listed as 68Ga-PSMA-R2), the “stability to the radiolytic degradation” value was “intrinsic stability to the radiolytic degradation” and the radiochemical purity entry is reported as “over 92%”. Also, in data set [1] (when gentisic acid is not used in the formulation), the 68Ga free entry is recorded as “under 2%”. In addition, the biodistribution profile result in data set [2] was “favourable biodistribution profile in tumor models (major uptake in tumor and kidneys, relatively low uptake in other organs)”.
In the case of `O=C(O)CCC(=O)O` [Succinic acid], in data set [3], the “pKa (20° C.)” value is reported as 4.22.

Values taken from US20230330278A1, “METHODS FOR RADIOLABELLING PSMA BINDING LIGANDS AND THEIR KITS” (Novartis AG, priority 2020, published 2023).
